Measurements from patent USRE47141E1, “Methods of treating fibrosis, cancer and vascular injuries” (EWHA University—Industry Collaboration Foundation, priority 2010, dated 2018).

Target: ALK5 (Homo sapiens (Human), UniProt P36897)
Assay: Cell-free assay for inhibition of ALK5 kinase phosphorylation
Assay type: biochemical
Conditions: not given

Chain of ALK5 (P36897 34-503): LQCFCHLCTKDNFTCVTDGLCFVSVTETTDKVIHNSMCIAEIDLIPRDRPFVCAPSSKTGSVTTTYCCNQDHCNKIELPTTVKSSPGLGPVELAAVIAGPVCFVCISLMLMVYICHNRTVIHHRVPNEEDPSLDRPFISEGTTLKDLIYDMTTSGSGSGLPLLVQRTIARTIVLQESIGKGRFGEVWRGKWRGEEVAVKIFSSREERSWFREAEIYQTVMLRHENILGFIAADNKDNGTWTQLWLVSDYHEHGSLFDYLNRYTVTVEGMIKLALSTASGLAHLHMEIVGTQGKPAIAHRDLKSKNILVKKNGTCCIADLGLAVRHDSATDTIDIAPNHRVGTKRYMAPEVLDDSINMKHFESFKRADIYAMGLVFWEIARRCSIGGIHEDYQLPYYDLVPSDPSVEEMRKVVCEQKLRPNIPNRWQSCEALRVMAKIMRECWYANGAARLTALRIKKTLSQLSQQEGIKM

Structure (SMILES)	IC50
Cc1cccc(-c2[nH]c(CNc3ccccc3C#N)nc2-c2ccc3ncnn3c2)n1 [Example 59, 2-((4-([1,2,4]triazolo[1,5-a]pyridin-6-yl)-5-(6-methylpyridin-2-yl)-1H-imidazol-2-yl)methylamino)benzonitrile]	19.5 nM

Same assay, conditions: read-out: IC50 on ALK5 kinase phosphorylation

Structure (SMILES)	IC50
COc1cccc(NCc2nc(-c3ccc4ncnn4c3)c(-c3cccc(C)n3)[nH]2)c1OC [Example 45, N-((4-([1,2,4]triazolo[1,5-a]pyridin-6-yl)-5-(6-methylpyridin-2-yl)-1H-imidazol-2-yl)methyl)-2,3-dimethoxyaniline]	57.5 nM
COC(=O)c1cccc(NCc2nc(-c3ccc4ncnn4c3)c(-c3cccc(C)n3)[nH]2)c1 [Example 72, Methyl 3-((4-([1,2,4]triazolo[1,5-a]pyridin-6-yl)-5-(6-methylpyridin-2-yl)-1H-imidazol-2-yl)methylamino)benzoate]	16.6 nM
CC(=O)Nc1ccccc1NCc1nc(-c2ccc3ncnn3c2)c(-c2cccc(C)n2)[nH]1 [Example 74, N-(2-((4-([1,2,4]triazolo[1,5-a]pyridin-6-yl)-5-(6-methylpyridin-2-yl)-1H-imidazol-2-yl)methylamino)phenyl)acetamide]	39.5 nM
Cc1ccc(NCc2nc(-c3ccc4ncnn4c3)c(-c3cccc(C)n3)[nH]2)cc1 [Example 26, N-((4-([1,2,4]triazolo[1,5-a]pyridin-6-yl)-5-(6-methylpyridin-2-yl)-1H-imidazol-2-yl)methyl)-4-methylaniline]	15.6 nM
Cc1cc(C)cc(NCc2nc(-c3ccc4ncnn4c3)c(-c3cccc(C)n3)[nH]2)c1 [Example 29, N-((4-([1,2,4]triazolo[1,5-a]pyridin-6-yl)-5-(6-methylpyridin-2-yl)-1H-imidazol-2-yl)methyl)-3,5-dimethylaniline]	14.3 nM
COc1ccccc1NCc1nc(-c2ccc3ncnn3c2)c(-c2cccc(C)n2)[nH]1 [Example 42, N-((4-([1,2,4]triazolo[1,5-a]pyridin-6-yl)-5-(6-methylpyridin-2-yl)-1H-imidazol-2-yl)methyl)-2-methoxyaniline]	14.4 nM
CSc1ccc(NCc2nc(-c3ccc4ncnn4c3)c(-c3cccc(C)n3)[nH]2)cc1 [Example 58, N-((4-([1,2,4]triazolo[1,5-a]pyridin-6-yl)-5-(6-methylpyridin-2-yl)-1H-imidazol-2-yl)methyl)-4-(methylthio)aniline]	39.6 nM
Cc1cccc(-c2[nH]c(CNc3cccc(Br)c3)nc2-c2ccc3ncnn3c2)n1 [Example 20, N-((4-([1,2,4]triazolo[1,5-a]pyridin-6-yl)-5-(6-methylpyridin-2-yl)-1H-imidazol-2-yl)methyl)-3-bromoaniline]	4.53 nM
Cc1cccc(-c2[nH]c(CNc3cccc(C(C)C)c3)nc2-c2ccc3ncnn3c2)n1 [Example 34, N-((4-([1,2,4]triazolo[1,5-a]pyridin-6-yl)-5-(6-methylpyridin-2-yl)-1H-imidazol-2-yl)methyl)-3-isopropylaniline]	16.2 nM
Cc1cccc(-c2[nH]c(CNc3cccc(C#N)c3)nc2-c2ccc3ncnn3c2)n1 [Example 60, 3-((4-([1,2,4]triazolo[1,5-a]pyridin-6-yl)-5-(6-methylpyridin-2-yl)-1H-imidazol-2-yl)methylamino)benzonitrile]	4.83 nM
Cc1cccc(-c2[nH]c(CNc3ccc(F)cc3)nc2-c2ccc3ncnn3c2)n1 [Example 6, N-((4-([1,2,4]triazolo[1,5-a]pyridin-6-yl)-5-(6-methylpyridin-2-yl)-1H-imidazol-2-yl)methyl)-4-fluoroaniline]	17.4 nM
CC(=O)c1ccc(NCc2nc(-c3ccc4ncnn4c3)c(-c3cccc(C)n3)[nH]2)cc1 [Example 71, 1-(4-((4-([1,2,4]triazolo[1,5-a]pyridin-6-yl)-5-(6-methylpyridin-2-yl)-1H-imidazol-2-yl)methylamino)phenyl)ethanone]	59.1 nM
CC(=O)Nc1ccc(NCc2nc(-c3ccc4ncnn4c3)c(-c3cccc(C)n3)[nH]2)cc1 [Example 76, N-(4-((4-([1,2,4]triazolo[1,5-a]pyridin-6-yl)-5-(6-methylpyridin-2-yl)-1H-imidazol-2-yl)methylamino)phenyl)acetamide]	39 nM
Cc1cccc(-c2[nH]c(CNc3ccc(OC(F)(F)F)cc3)nc2-c2ccc3ncnn3c2)n1 [Example 53, N-((4-([1,2,4]triazolo[1,5-a]pyridin-6-yl)-5-(6-methylpyridin-2-yl)-1H-imidazol-2-yl)methyl)-4-(trifluoromethoxy)aniline]	60.1 nM
COC(=O)c1ccc(NCc2nc(-c3ccc4ncnn4c3)c(-c3cccc(C)n3)[nH]2)cc1 [Example 73, Methyl 4-((4-([1,2,4]triazolo[1,5-a]pyridin-6-yl)-5-(6-methylpyridin-2-yl)-1H-imidazol-2-yl)methylamino)benzoate]	78 nM
Cc1cccc(-c2[nH]c(CN(C)c3cccc(C(N)=O)c3)nc2-c2ccc3ncnn3c2)n1 [Example 142]	153 nM
Cc1cccc(-c2[nH]c(CNc3ccc(Br)cc3)nc2-c2ccc3ncnn3c2)n1 [Example 22, N-((4-([1,2,4]triazolo[1,5-a]pyridin-6-yl)-5-(6-methylpyridin-2-yl)-1H-imidazol-2-yl)methyl)-4-bromoaniline]	17.1 nM

Structure (SMILES)	IC50
C=Cc1ccc(NCc2nc(-c3ccc4ncnn4c3)c(-c3cccc(C)n3)[nH]2)cc1 [Example 40, N-((4-([1,2,4]triazolo[1,5-a]pyridin-6-yl)-5-(6-methylpyridin-2-yl)-1H-imidazol-2-yl)methyl)-4-vinylaniline]	29.6 nM
Cc1cccc(-c2[nH]c(CNc3cccc(CC#N)c3)nc2-c2ccc3ncnn3c2)n1 [Example 68, 2-(3-((4-([1,2,4]triazolo[1,5-a]pyridin-6-yl)-5-(6-methylpyridin-2-yl)-1H-imidazol-2-yl)methylamino)phenyl)acetonitrile]	11 nM
Cc1cccc(-c2[nH]c(CNc3ccccc3OC(F)(F)F)nc2-c2ccc3ncnn3c2)n1 [Example 51, N-((4-([1,2,4]triazolo[1,5-a]pyridin-6-yl)-5-(6-methylpyridin-2-yl)-1H-imidazol-2-yl)methyl)-2-(trifluoromethoxy)aniline]	12.3 nM
Cc1cccc(-c2[nH]c(CNc3ccc(C#N)cc3)nc2-c2ccc3ncnn3c2)n1 [Example 63, 4-((4-([1,2,4]triazolo[1,5-a]pyridin-6-yl)-5-(6-methylpyridin-2-yl)-1H-imidazol-2-yl)methylamino)benzonitrile]	32.1 nM
Cc1cccc(-c2[nH]c(CNc3cccc(C)c3C)nc2-c2ccc3ncnn3c2)n1 [Example 27, N-((4-([1,2,4]triazolo[1,5-a]pyridin-6-yl)-5-(6-methylpyridin-2-yl)-1H-imidazol-2-yl)methyl)-2,3-dimethylaniline]	18 nM
COc1ccc(NCc2nc(-c3ccc4ncnn4c3)c(-c3cccc(C)n3)[nH]2)cc1OC [Example 46, N-((4-([1,2,4]triazolo[1,5-a]pyridin-6-yl)-5-(6-methylpyridin-2-yl)-1H-imidazol-2-yl)methyl)-3,4-dimethoxyaniline]	44.2 nM
Cc1cccc(-c2[nH]c(Cc3cccc(C(N)=O)c3)nc2-c2ccc3ncnn3c2)n1 [Example 147, 3-((4-([1,2,4]triazolo[1,5-a]pyridin-6-yl)-5-(6-methylpyridin-2-yl)-1H-imidazol-2-yl)methyl)benzamide]	40 nM
COc1ccc(NCc2nc(-c3ccc4ncnn4c3)c(-c3cccc(C)n3)[nH]2)cc1 [Example 44, N-((4-([1,2,4]triazolo[1,5-a]pyridin-6-yl)-5-(6-methylpyridin-2-yl)-1H-imidazol-2-yl)methyl)-4-methoxyaniline]	48.1 nM
Cc1cccc(-c2[nH]c(CNc3ccccc3Br)nc2-c2ccc3ncnn3c2)n1 [Example 18, N-((4-([1,2,4]triazolo[1,5-a]pyridin-6-yl)-5-(6-methylpyridin-2-yl)-1H-imidazol-2-yl)methyl)-2-bromoaniline]	6.54 nM
Cc1cccc(NCc2nc(-c3ccc4ncnn4c3)c(-c3cccc(C)n3)[nH]2)c1 [Example 24, N-((4-([1,2,4]triazolo[1,5-a]pyridin-6-yl)-5-(6-methylpyridin-2-yl)-1H-imidazol-2-yl)methyl)-3-methylaniline]	9.07 nM
Cc1cccc(-c2[nH]c(CNc3ccccc3Cl)nc2-c2ccc3ncnn3c2)n1 [Example 10, N-((4-([1,2,4]triazolo[1,5-a]pyridin-6-yl)-5-(6-methylpyridin-2-yl)-1H-imidazol-2-yl)methyl)-2-chloroaniline]	9.41 nM
COCc1cccc(NCc2nc(-c3ccc4ncnn4c3)c(-c3cccc(C)n3)[nH]2)c1 [Example 49, N-((4-([1,2,4]triazolo[1,5-a]pyridin-6-yl)-5-(6-methylpyridin-2-yl)-1H-imidazol-2-yl)methyl)-3-(methoxymethyl)aniline]	15.3 nM
Cc1cccc(-c2[nH]c(CNc3cccc(F)c3F)nc2-c2ccc3ncnn3c2)n1 [Example 7, N-((4-([1,2,4]triazolo[1,5-a]pyridin-6-yl)-5-(6-methylpyridin-2-yl)-1H-imidazol-2-yl)methyl)-2,3-difluoroaniline]	8.96 nM
Cc1cccc(-c2[nH]c(CNc3cccc(Cl)c3Cl)nc2-c2ccc3ncnn3c2)n1 [Example 15, N-((4-([1,2,4]triazolo[1,5-a]pyridin-6-yl)-5-(6-methylpyridin-2-yl)-1H-imidazol-2-yl)methyl)-2,3-dichloroaniline]	12.3 nM
Cc1cccc(-c2[nH]c(COc3ccccc3)nc2-c2ccc3ncnn3c2)n1 [Example 148, 6-(5-(6-methylpyridin-2-yl)-2-(phenoxymethyl)-1H-imidazol-4-yl)-[1,2,4]triazolo[1,5-a]pyridine]	13.1 nM
Cc1cccc(-c2[nH]c(CNc3ccc(C(C)C)cc3)nc2-c2ccc3ncnn3c2)n1 [Example 35, N-((4-([1,2,4]triazolo[1,5-a]pyridin-6-yl)-5-(6-methylpyridin-2-yl)-1H-imidazol-2-yl)methyl)-4-isopropylaniline]	46 nM
Cc1cccc(-c2[nH]c(CNc3ccccc3C(N)=O)nc2-c2ccc3ncnn3c2)n1 [Example 65, 2-((4-([1,2,4]triazolo[1,5-a]pyridin-6-yl)-5-(6-methylpyridin-2-yl)-1H-imidazol-2-yl)methylamino)benzamide]	29.7 nM
